Results on 13 molecules are retold here after patent publication US7799947B2, “In vivo imaging compounds” (Hammersmith Imanet Limited, priority 2005, dated 2010).

A value given as a limit tells only on which side of the number the result lay.

T1 sequence (Q00960 27-1482, other chains not shown): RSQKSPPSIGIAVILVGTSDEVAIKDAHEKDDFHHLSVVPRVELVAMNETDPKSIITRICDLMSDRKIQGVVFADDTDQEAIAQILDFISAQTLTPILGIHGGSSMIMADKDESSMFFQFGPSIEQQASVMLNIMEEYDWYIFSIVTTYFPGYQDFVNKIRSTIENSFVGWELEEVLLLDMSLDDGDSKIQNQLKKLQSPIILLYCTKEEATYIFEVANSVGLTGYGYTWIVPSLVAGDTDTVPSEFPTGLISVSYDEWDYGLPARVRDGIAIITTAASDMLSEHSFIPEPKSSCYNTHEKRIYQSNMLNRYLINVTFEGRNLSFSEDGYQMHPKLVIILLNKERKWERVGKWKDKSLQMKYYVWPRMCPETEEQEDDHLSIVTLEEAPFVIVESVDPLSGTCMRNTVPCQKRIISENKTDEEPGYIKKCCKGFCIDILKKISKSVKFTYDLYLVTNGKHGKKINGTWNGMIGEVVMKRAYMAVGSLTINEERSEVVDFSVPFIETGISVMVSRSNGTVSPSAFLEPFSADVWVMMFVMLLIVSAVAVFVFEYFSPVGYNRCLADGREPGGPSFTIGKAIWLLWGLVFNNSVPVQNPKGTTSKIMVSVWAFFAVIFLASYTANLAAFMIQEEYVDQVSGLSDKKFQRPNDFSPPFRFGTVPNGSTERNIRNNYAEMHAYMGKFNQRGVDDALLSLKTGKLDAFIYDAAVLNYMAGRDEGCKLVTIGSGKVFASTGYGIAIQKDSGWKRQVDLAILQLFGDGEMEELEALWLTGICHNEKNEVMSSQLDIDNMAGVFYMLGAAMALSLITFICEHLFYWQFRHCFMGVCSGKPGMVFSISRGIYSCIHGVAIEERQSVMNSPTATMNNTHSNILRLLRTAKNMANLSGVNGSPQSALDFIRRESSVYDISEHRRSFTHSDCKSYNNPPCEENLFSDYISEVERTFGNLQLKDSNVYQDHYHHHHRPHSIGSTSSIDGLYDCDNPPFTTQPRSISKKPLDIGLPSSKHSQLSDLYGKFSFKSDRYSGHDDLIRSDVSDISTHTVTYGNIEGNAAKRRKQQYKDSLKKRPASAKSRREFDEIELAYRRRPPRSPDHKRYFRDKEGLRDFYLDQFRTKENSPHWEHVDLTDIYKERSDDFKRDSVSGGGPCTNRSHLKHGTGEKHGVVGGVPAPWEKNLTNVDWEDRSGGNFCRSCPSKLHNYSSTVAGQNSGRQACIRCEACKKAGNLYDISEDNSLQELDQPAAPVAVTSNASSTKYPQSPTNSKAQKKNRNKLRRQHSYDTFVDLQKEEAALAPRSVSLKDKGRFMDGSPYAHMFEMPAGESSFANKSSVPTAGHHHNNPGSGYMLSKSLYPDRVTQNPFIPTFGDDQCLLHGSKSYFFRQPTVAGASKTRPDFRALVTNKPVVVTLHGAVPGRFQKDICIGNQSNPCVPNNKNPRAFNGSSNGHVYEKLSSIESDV

This assay concerns the target T1, NR2B receptor (Rattus norvegicus, UniProt P35439+Q00960).
T1 construct: NMDA, Polyamine source: Wistar Rat cerebral cortex; from tissue; host or cells: Wistar rat cerebral cortex
Briefly: In vitro affinity measurement, [^3H]Ifenprodil radioligand binding (NMDA, Polyamine). As to conditions: Wistar Rat cerebral cortex; ligand [^3H]Ifenprodil; 2 hours at 4° C.; six concentrations tested in duplicate.
In general, Ki refers to the equilibrium dissociation constant of an inhibitor or competing ligand from its target. Higher therefore signals weaker binding. With `COc1ccc(Cl)cc1CNC(=N)c1ccc(OC(F)(F)F)cc1` [EA9, N-(2-methoxy-5-chlorobenzyl)-4-trifluoromethoxyphenyl amidine], the Ki was less than 2 nM. For `COc1cccc(CNC(=N)c2ccc(OC(F)(F)F)cc2)c1OC` [EA7, N-(2,3-dimethoxybenzyl)-4-trifluoromethoxyphenyl amidine], the Ki was greater than 100 nM.

In the case of `N=C(NCc1cc(Cl)cc(Cl)c1)c1ccc(I)cc1` [EA14, N-(3,5-dichlorobenzyl)-4-iodophenyl amidine], the Ki was less than 2 nM. Molecule `COc1cc(CNC(=N)c2ccc(OC(F)(F)F)cc2)c(OC)cc1Cl` [EA8, N-(2,5-dimethoxy-4-chlorobenzyl)-4-trifluoromethoxyphenyl amidine] came in with a Ki of less than 11 nM. Under `COc1ccc(Br)cc1CNC(=N)c1ccc(OC(F)(F)F)cc1` [EA10, N-(2-methoxy-5-bromobenzyl)-4-trifluoromethoxyphenyl amidine] stands less than 2 nM; under `COc1ccc(OC)c(CNC(=N)c2ccc(OC(F)(F)F)cc2)c1` [EA5, N-(2,5-dimethoxybenzyl)-4-trifluoromethoxyphenyl amidine], less than 11 nM; under `COc1ccccc1CNC(=N)c1ccc(I)cc1` [EA12, N-(2-methoxybenzyl)-4-iodophenyl amidine], less than 11 nM. In the case of `COc1cc(Cl)cc(CNC(=N)c2ccc(OC(F)(F)F)cc2)c1` [EA11, N-(3-methoxy-5-chlorobenzyl)-4-trifluoromethoxyphenyl amidine], the Ki is less than 11 nM. As for `N=C(NCc1cc(Br)ccc1OCCF)c1ccc(OC(F)(F)F)cc1` [EA16], the Ki is less than 11 nM.

`COc1cc(CNC(=N)c2ccc(OC(F)(F)F)cc2)cc(OC)c1` [EA4, N-(3,5-dimethoxybenzyl)-4-trifluoromethoxyphenyl amidine] registered a Ki of less than 11 nM. `N=C(NCc1cc(Cl)cc(OCCF)c1)c1ccc(OC(F)(F)F)cc1` [EA15, N-(3-(2-fluoroethoxy)-5-chlorobenzyl)-4-trifluoromethoxyphenyl amidine] registered a Ki of less than 11 nM.

For `COc1cccc(OC)c1CNC(=N)c1ccc(OC(F)(F)F)cc1` [EA6, N-(2,6-dimethoxybenzyl)-4-trifluoromethoxyphenyl amidine], the Ki is less than 2 nM. The molecule `N=C(NCc1cccc(Cl)c1)c1ccc(I)cc1` [EA13, N-(3-chlorobenzyl)-4-iodophenyl amidine] registered a Ki of less than 11 nM.
